For 14 molecules, IC50 and MTAP intact/deleted ratio results are on record in patent publication US11999727B2 (Tango Therapeutics, Inc., priority 2020, dated 2024).

Experiment [1] has as its target T1, PRMT5 (Homo sapiens, UniProt O14744).
T1 construct: purchased Viva (custom protein)
Briefly: PRMT5 biochemical IC50 assay with SAM as cofactor. The settings on record: PRMT5, SAM as cofactor; read-out: SAM IC50.

The target in experiment [2] is T1, PRMT5. The experiment can be described thus: PRMT5 biochemical IC50 assay with no cofactor. To be noted: PRMT5, no cofactor; read-out: No Cofactor/rel IC50. The source says:
Table 1 indicates IC50 values (μM) against PRMT5 for exemplary compounds in the presence of SAM as cofactor, with no cofactor, and with MTA as cofactor, respectively (columns 4-6). […] Ki values can be calculated from the IC50 values as described in the Examples section. As detailed in the Examples section, for the assay performed in the presence of SAM, IC50=Ki×1.5 (Ki=IC50/1.5).

The target in experiment [3] is T1, PRMT5. Briefly: PRMT5 biochemical IC50 assay with MTA as cofactor. To be noted: PRMT5, MTA as cofactor; read-out: MTA IC50.
The test system of experiment [4] is HAP1 MTAP-intact cell line. Briefly: SDMA in-cell western assay, HAP1 MTAP-intact. To be noted: Homo sapiens, HAP1, SDMA in-cell western, HAP1 MTAP-intact; read-out: MTAP HAP1 intact IC50. The class given is cell-based. The method, boiled down:
(§1)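 Isogenic HAP1 pair: the MTAP-intact line expresses endogenous MTAP, and the deleted line is MTAP-null. Symmetric dimethylarginine was detected by in-cell western and IC50 values derived for each line.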

Experiment [5] concerns HAP1 MTAP-deleted cell line. The experiment can be described thus: SDMA in-cell western assay, HAP1 MTAP-deleted. The class given is cell-based. To be noted: for IC50: Homo sapiens, HAP1, SDMA in-cell western, HAP1 MTAP-deleted, read-out: HAP1 MTAP deleted IC50; for MTAP intact/deleted ratio: IC50 ratio HAP1 MTAP-intact / HAP1 MTAP-deleted, SDMA in-cell western. In outline:
as §1

Experiment [6] relates to HAP1 MTAP-deleted cell line. Briefly: Viability assay, MTAP-deleted cell line. The class given is cell-based. To be noted: Homo sapiens, HAP1, viability assay, MTAP-deleted cell line; read-out: HAP1 MTAP deleted viability. The source says:
Table 1 additionally indicates IC50 values in a viability assay for the MTAP-deleted cell line (column 10), indicating the effect of treatment with compound on cell survival.

T1 sequence (O14744 whole entry): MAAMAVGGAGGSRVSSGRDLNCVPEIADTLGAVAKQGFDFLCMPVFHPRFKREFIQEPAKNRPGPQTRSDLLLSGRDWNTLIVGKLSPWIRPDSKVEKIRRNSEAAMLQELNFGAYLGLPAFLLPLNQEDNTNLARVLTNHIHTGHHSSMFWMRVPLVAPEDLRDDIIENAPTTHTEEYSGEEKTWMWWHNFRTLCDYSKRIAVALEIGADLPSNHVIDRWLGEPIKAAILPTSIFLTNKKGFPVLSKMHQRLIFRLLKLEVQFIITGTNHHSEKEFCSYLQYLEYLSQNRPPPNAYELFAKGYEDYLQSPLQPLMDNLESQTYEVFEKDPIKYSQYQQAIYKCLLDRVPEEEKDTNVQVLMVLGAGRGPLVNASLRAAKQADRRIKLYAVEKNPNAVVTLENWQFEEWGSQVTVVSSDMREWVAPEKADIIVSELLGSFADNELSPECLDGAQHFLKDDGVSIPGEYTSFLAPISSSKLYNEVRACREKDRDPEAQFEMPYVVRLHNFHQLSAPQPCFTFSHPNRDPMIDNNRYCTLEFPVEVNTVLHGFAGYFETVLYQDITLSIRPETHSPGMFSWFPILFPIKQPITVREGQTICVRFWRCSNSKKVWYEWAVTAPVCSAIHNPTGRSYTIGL
T1 sequence (Q9BQA1 whole entry partner): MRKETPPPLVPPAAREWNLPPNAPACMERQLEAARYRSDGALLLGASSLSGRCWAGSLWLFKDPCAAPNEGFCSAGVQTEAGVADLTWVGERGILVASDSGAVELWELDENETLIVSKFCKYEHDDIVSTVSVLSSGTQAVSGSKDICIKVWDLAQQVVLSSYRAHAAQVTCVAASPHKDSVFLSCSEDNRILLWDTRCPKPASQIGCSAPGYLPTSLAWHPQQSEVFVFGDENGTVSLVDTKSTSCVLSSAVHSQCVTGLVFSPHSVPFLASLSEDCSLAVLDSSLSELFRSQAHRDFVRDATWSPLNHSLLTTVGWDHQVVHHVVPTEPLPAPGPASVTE

`C[C@@H]1CC[C@@H](c2cccc(C#N)c2)N(C(=O)C(=O)Nc2cncc(C(N)=O)c2)C1` (racemic) [Compound 239, rac-5-{2-[(2R,5S)-2-(3-Cyanophenyl)-5-methylpiperidin-1-yl]-2-oxoacetamido}pyridine-3-carboxamide]: the IC50 on PRMT5 [1] was 50 to 500 nM; at PRMT5 [2], 50 to 500 nM; at PRMT5 [3] it was below 50 nM; in experiment [4] it was above 1000 nM; in experiment [5], below 100 nM; in experiment [6], 1000 to 10000 nM. For the same molecule, the MTAP intact/deleted ratio entry in experiment [5] is “A (an IC50 ratio greater than or equal to 10 fold)”.

For the molecule `C[C@@H]1CC[C@@H](c2ccc3ccoc3c2)N(C(=O)C(=O)Nc2cncc(C(N)=O)c2)C1` (racemic) [Compound 241, rac-5-{2-[(2R,5S)-2-(1-Benzofuran-6-yl)-5-methylpiperidin-1-yl]-2-oxoacetamido}pyridine-3-carboxamide], the IC50 on PRMT5 [1] is 50 to 500 nM; at PRMT5 [2], 50 to 500 nM; at PRMT5 [3] it was below 50 nM; in experiment [4], above 1000 nM; in experiment [5], below 100 nM; in experiment [6], 1000 to 10000 nM. Further, in experiment [5], the MTAP intact/deleted ratio result is on record as “A (an IC50 ratio greater than or equal to 10 fold)”.

Regarding `C[C@@H]1CC[C@@H](c2ccc(Cl)c(Cl)c2)N(C(=O)C(=O)Nc2cncc(C(N)=O)c2)C1` (racemic) [Compound 243, rac-5-{2-[(2R,5S)-2-(3,4-Dichlorophenyl)-5-methylpiperidin-1-yl]-2-oxoacetamido}pyridine-3-carboxamide], the IC50 is 50 to 500 nM at PRMT5 [1]; 50 to 500 nM on PRMT5 [2]; below 50 nM on PRMT5 [3]; above 1000 nM in experiment [4]; 100 to 1000 nM in experiment [5]; 1000 to 10000 nM in experiment [6]. Besides, the MTAP intact/deleted ratio result in experiment [5] is listed as “A (an IC50 ratio greater than or equal to 10 fold)”.

Take `C[C@@H]1CC[C@@H](c2ccc(C#N)c(C3CC3)c2)N(C(=O)C(=O)Nc2cncc(C(N)=O)c2)C1` (racemic) [Compound 244, rac-5-{2-[(2R,5S)-2-(4-Cyano-3-cyclopropylphenyl)-5-methylpiperidin-1-yl]-2-oxoacetamido}pyridine-3-carboxamide]: the IC50 was 50 to 500 nM at PRMT5 [1]; 50 to 500 nM at PRMT5 [2]; below 50 nM at PRMT5 [3]; above 1000 nM in experiment [4]; below 100 nM in experiment [5]; 1000 to 10000 nM in experiment [6]. Besides, the MTAP intact/deleted ratio entry in experiment [5] was “A (an IC50 ratio greater than or equal to 10 fold)”.

With `C[C@@H]1CC[C@@H](c2ccc(C#N)cc2)N(C(=O)C(=O)Nc2cncc(C(N)=O)c2)C1` (racemic) [Compound 246, rac-5-{2-[(2R,5S)-2-(4-Cyanophenyl)-5-methylpiperidin-1-yl]-2-oxoacetamido}pyridine-3-carboxamide], the IC50 on PRMT5 [1] was 50 to 500 nM; on PRMT5 [2], 50 to 500 nM; on PRMT5 [3] it was below 50 nM; in experiment [4], above 1000 nM; in experiment [5] it was 100 to 1000 nM; in experiment [6], 1000 to 10000 nM. The MTAP intact/deleted ratio result in experiment [5] was “A (an IC50 ratio greater than or equal to 10 fold)”.

As for `C[C@@H]1CC[C@@H](c2cccc(F)c2)N(C(=O)C(=O)Nc2cncc(C(N)=O)c2)C1` (racemic) [Compound 247, rac-5-{2-[(2R,5S)-2-(3-Fluorophenyl)-5-methylpiperidin-1-yl]-2-oxoacetamido}pyridine-3-carboxamide], the IC50 at PRMT5 [1] is 50 to 500 nM; on PRMT5 [2], 50 to 500 nM; at PRMT5 [3], below 50 nM; in experiment [4], above 1000 nM; in experiment [5] it was below 100 nM; in experiment [6], 1000 to 10000 nM. Besides, in experiment [5], the MTAP intact/deleted ratio result was “A (an IC50 ratio greater than or equal to 10 fold)”.

As for `C[C@@H]1CC[C@@H](c2cncc(F)c2)N(C(=O)C(=O)Nc2cncc(C(N)=O)c2)C1` (racemic) [Compound 248, rac-5-{2-[(2R,5S)-2-(5-Fluoropyridin-3-yl)-5-methylpiperidin-1-yl]-2-oxoacetamido}pyridine-3-carboxamide], the IC50 was above 500 nM at PRMT5 [1]; above 500 nM on PRMT5 [2]; 50 to 500 nM on PRMT5 [3]; above 1000 nM in experiment [4]; above 1000 nM in experiment [5]; above 10000 nM in experiment [6]. For the same molecule, the MTAP intact/deleted ratio result in experiment [5] is reported as “B (an IC50 ratio greater than or equal to 3 fold but lower than 10 fold)”.

As to `CNC(=O)[C@@H]1CC[C@@H](c2ccccc2)N(C(=O)C(=O)Nc2cnc(N)c(C)c2)C1` (racemic) [Compound 249, 1-(2-((6-amino-5-methylpyridin-3-yl)amino)-2-oxoacetyl)-N-methyl-6-phenylpiperidine-3-carboxamide], the IC50 on PRMT5 [1] is 50 to 500 nM; at PRMT5 [2], above 500 nM; at PRMT5 [3], 50 to 500 nM; in experiment [4], above 1000 nM; in experiment [5], above 1000 nM; in experiment [6] it was above 10000 nM. Also, the MTAP intact/deleted ratio result in experiment [5] is on record as “C (an IC50 ratio of less than 3 fold)”.

Regarding `C[C@@H]1CC[C@@H](c2ccc(OC(F)(F)F)cc2)N(C(=O)C(=O)Nc2cncc(C(N)=O)c2)C1` (racemic) [Compound 250, rac-5-{2-[(2R,5S)-5-Methyl-2-[4-(trifluoromethoxy)phenyl]piperidin-1-yl]-2-oxoacetamido}pyridine-3-carboxamide], the IC50 is 50 to 500 nM at PRMT5 [1]; 50 to 500 nM on PRMT5 [2]; below 50 nM on PRMT5 [3]; above 1000 nM in experiment [4]; below 100 nM in experiment [5]; 1000 to 10000 nM in experiment [6]. In experiment [5], the MTAP intact/deleted ratio entry is “A (an IC50 ratio greater than or equal to 10 fold)”.

With `C[C@@H]1CC[C@@H](c2ccc(C(F)(F)F)cc2)N(C(=O)C(=O)Nc2cncc(C(N)=O)c2)C1` (racemic) [Compound 251, rac-5-{2-[(2R,5S)-5-Methyl-2-[4-(trifluoromethyl)phenyl]piperidin-1-yl]-2-oxoacetamido}pyridine-3-carboxamide], the IC50 on PRMT5 [1] was 50 to 500 nM; on PRMT5 [2] it was 50 to 500 nM; on PRMT5 [3] it was below 50 nM; in experiment [4] it was above 1000 nM; in experiment [5] it was below 100 nM; in experiment [6], 1000 to 10000 nM. For the same molecule, the MTAP intact/deleted ratio result in experiment [5] was “A (an IC50 ratio greater than or equal to 10 fold)”.

For `C[C@@H]1CC[C@@H](c2ccc(Cn3cncn3)cc2)N(C(=O)C(=O)Nc2cncc(C(N)=O)c2)C1` (racemic) [Compound 252, rac-5-{2-[(2R,5S)-5-Methyl-2-{4-[(1H-1,2,4-triazol-1-yl)methyl]phenyl}piperidin-1-yl]-2-oxoacetamido}pyridine-3-carboxamide], the IC50 was 50 to 500 nM at PRMT5 [1]; 50 to 500 nM at PRMT5 [2]; below 50 nM on PRMT5 [3]; above 1000 nM in experiment [4]; 100 to 1000 nM in experiment [5]; above 10000 nM in experiment [6]. Besides, the MTAP intact/deleted ratio entry in experiment [5] is recorded as “A (an IC50 ratio greater than or equal to 10 fold)”.

With `CNC(=O)[C@@H]1CC[C@H](c2ccccc2)N(C(=O)C(=O)Nc2cnc(N)c(C)c2)C1` (racemic) [Compound 253, 1-(2-((6-amino-5-methylpyridin-3-yl)amino)-2-oxoacetyl)-N-methyl-6-phenylpiperidine-3-carboxamide], the IC50 at PRMT5 [1] was 50 to 500 nM; on PRMT5 [2], above 500 nM; on PRMT5 [3], 50 to 500 nM; in experiment [4], above 1000 nM; in experiment [5], above 1000 nM; in experiment [6], above 10000 nM. Also, the MTAP intact/deleted ratio result in experiment [5] is “C (an IC50 ratio of less than 3 fold)”.

For the molecule `C[C@@H]1CC[C@@H](c2ccc(F)c(C(F)(F)F)c2)N(C(=O)C(=O)Nc2cncc(C(N)=O)c2)C1` (racemic) [Compound 255, rac-5-{2-[(2R,5S)-2-[4-Fluoro-3-(trifluoromethyl)phenyl]-5-methylpiperidin-1-yl]-2-oxoacetamido}pyridine-3-carboxamide], the IC50 on PRMT5 [1] was 50 to 500 nM; on PRMT5 [2], 50 to 500 nM; on PRMT5 [3], below 50 nM; in experiment [4], above 1000 nM; in experiment [5], 100 to 1000 nM; in experiment [6], 1000 to 10000 nM. For the same molecule, the MTAP intact/deleted ratio result in experiment [5] was “A (an IC50 ratio greater than or equal to 10 fold)”.

For the molecule `C[C@@H]1CC[C@@H](c2ccc(-n3cccn3)cc2)N(C(=O)C(=O)Nc2cncc(C(N)=O)c2)C1` (racemic) [Compound 256, rac-5-{2-[(2R,5S)-5-Methyl-2-[4-(1H-pyrazol-1-yl)phenyl]piperidin-1-yl]-2-oxoacetamido}pyridine-3-carboxamide], the IC50 at PRMT5 [1] is 50 to 500 nM; at PRMT5 [2] it was 50 to 500 nM; on PRMT5 [3], below 50 nM; in experiment [4] it was above 1000 nM; in experiment [5] it was below 100 nM; in experiment [6], 1000 to 10000 nM. The MTAP intact/deleted ratio entry in experiment [5] is reported as “A (an IC50 ratio greater than or equal to 10 fold)”.
